Measurements reported in US20250040554A1, “NEW USES OF PHENMEDIPHAM AND HERBICIDAL COMBINATIONS COMPRISING PHENMEDIPHAM” (BAYER AKTIENGESELLSCHAFT, priority 2021, published 2025).

What was measured:
Format in all cases: in vivo
[1] = test system: EPHHL=Euphorbia heterophylla; assay: Weed control field trial EPHHL
Text: (§1) The respective (combinations of) materials were applied to weed plants in the greenhouse or in the field at the respective growth stage indicated hereinafter for the different weed species mentioned below. The respective (combinations of) active ingredients were also applied to corn, cotton and soybean crop plants, and the selectivity (damage) in these crop plants rated (assessed).
(§2) Visual scoring of the damage to the trial plants took place after the time mentioned in the respective Table—indicated in number of Days After Application (DAA). Damage and development of all above-ground parts of the respective plants was recorded. Visual rating was done on a percentage scale in relation to the untreated control (100%=all plants dead; 50%=green plant biomass reduced by 50%, and 0%=no discernible difference=like control plot).
(§3) The trials in the greenhouse were sprayed with an application volume of 300 L/ha with an automated track sprayer. The plots in the field were sprayed with an application volume of 140 L/ha with a hand held spray boom.
(§4) wherein • A, B=respective value in percent of active ingredient A at a dose rate of a g/ha, ingredient B at a dose rate of b g/ha • E^C=Expected value according to Colby (S. R. Colby; Weeds 15 (1967), 20-22) in % at a dose rate of a+b, each in g/ha • Δ=Difference (in %) between measured value E and expected value E^C (%) (measured value minus expected value)
(§5) The growth stages of the different weed species are indicated according to the BBCH monograph “Growth stages of mono- and dicotyledonous plants”, 2nd edition, 2001, ed. Uwe Meier, Federal Biological Research Centre for Agriculture and Forestry (Biologische Bundesanstalt für Land und Forstwirtschaft).
(§6) After the harmful plants had emerged, they were treated, at the respective growth stage indicated, with the respective materials as indicated at a water application rate of 140 L/ha.
(§7) After the treatment (21 or 35 days after application of the respective material), the herbicidal activity of respective material was scored visually at the same time by comparing the differently treated plots with the untreated control plots. The score figures of the different plots were averaged.
(§8) The dose rates of herbicidal ingredients used in each case are indicated for the respective active ingredient and refer to the amount of active ingredient per hectare (g/ha).
(§9) The weed control activity of different (combinations of) herbicidal active ingredients was investigated in field trials for the following weed species: • AMAVI=Amaranthus viridis • IPOAO=Ipomoea aristolochiaefolia • EPHHL=Euphorbia heterophylla • BIDPI=Bidens pilosa • BRADC=Brachiaria decumbens • ELEIN=Eleusine indica • CCHEC=Cenchrus echinatus
(§10) The growth stage of AMAVI was BBCH 13, the growth stage of IPOAO was BBCH 15, the growth stage of EPHHL was BBCH 13, the growth stage of BIDPI was BBCH 14, the growth stage of BRADC was BBCH 23, the growth stage of ELEIN was BBCH 11 and the growth stage of CCHEC was BBCH 12 at the time of application of the respective material.
(§11) Phenmedipham and Mesotrione were applied at varying application rates (Dose Rate) to the different species of weed plants. The results are shown in Tables 3a to 3e as the % control when assessed 21 and 35 days after application (DAA), respectively.
(§12) In all the trials of Tables 3a to 3e Mero® (rapeseed oil methyl ester) was added to the respective spray mixture in an amount corresponding to 1 L/ha for PMP, 1 L/ha for MST, and 2 L/ha for mixtures of PMP+MST.

KCHSC=Kochia scoparia = assay: Weed control field trial KCHSC; conditions: 15 DAA
Text: as §1, §2, §4
After the harmful plants had emerged, they were treated, at the respective growth stage indicated, with the respective materials as indicated at a water application rate of 187 L/ha.
After the treatment (15 days after the treatment), the herbicidal activity of respective material was scored visually at the same time by comparing the differently treated plots with the untreated control plots. The score figures of the different plots were averaged.
as §8
The weed control activity of different (combinations of) herbicidal active ingredients was investigated in field trials for the following weed species: • AMARE=Amaranthus retroflexus • KCHSC=Kochia scoparia • PANRA=Panicum ramosum
The growth stage of AMARE was BBCH 19, the growth stage of KCHSC was BBCH 19 and the growth stage of PANRA was BBCH 22 at the time of application of the respective material.
Phenmedipham and the respective aroylcyclohexanedione herbicide were applied at varying application rates (Dose Rate) to the different species of weed plants. The results are shown in Tables 4a to 4d as the % control when assessed 15 days after application (DAA), respectively.
In all the trials of Tables 4a to 4d Mero® (rapeseed oil methyl ester) was added to the respective spray mixture in an amount corresponding to 1 L/ha for PMP, 1 L/ha for the respective aroylcyclohexanedione herbicide, and 2 L/ha for mixtures of PMP+the respective aroylcyclohexanedione herbicide.

AMAVI=Amaranthus viridis = assay: Weed control field trial AMAVI
Text: as §1, §2, §3, §4, §5, §6, §7, §8, §9, §10, §11, §12

BROTE=Bromus tectorum = assay: Greenhouse weed control trial BROTE; conditions: 25 DAA
Text: as §1, §2, §3
In greenhouse selectivity trials and trials herbicidal activity trials against weed plants were investigated in post-emergence application of the respective material(s).
Herbicidal activity against different weeds (undesired plants) was calculated as follows.
as §4
• measured value E is greater than E^C:->synergism (+Δ) • measured value E is equal to E^C:->additive effect • measured value E is smaller than E^C:->antagonism (−Δ)
The weed control activity of different (combinations of) materials was investigated in greenhouse trials for the following weed species: • STEME=Stellaria media • ECHCG=Echinochloa crus-galli • BROTE=Bromus tectorum
Phenmedipham amd Mesotrione were applied at varying application rates (Dose Rate) to the weed plant species STEME, ECHCG and BROTE. The results are shown in Tables 2a to 2c as the % control when assessed 25 days after application (25 DAA).
In all the trials of Table Tables 2a to 2c Mero® (rapeseed oil methyl ester) was added to the respective spray mixture in an amount corresponding to 1 L/ha for PMP, 1 L/ha for MST, and 2 L/ha for mixtures of PMP+MST.

CCHEC=Cenchrus echinatus = assay: Weed control field trial CCHEC
Text: as §1, §2, §3, §4, §5, §6, §7, §8, §9, §10, §11, §12

COC(=O)Nc1cccc(OC(=O)Nc2cccc(C)c2)c1 [PMP, 3-[(methoxyformyl)amino]phenyl (3-methylphenyl)carbamate]
0%: % control EPHHL ([1]; 75 g/ha, 21 DAA) | % control EPHHL ([1]; 75 g/ha, 35 DAA) | % control EPHHL ([1]; 100 g/ha, 21 DAA) | % control EPHHL ([1]; 100 g/ha, 35 DAA) | % control EPHHL ([1]; 125 g/ha, 21 DAA) | % control EPHHL ([1]; 125 g/ha, 35 DAA) | % control EPHHL ([1]; 250 g/ha, 21 DAA) | % control EPHHL ([1]; 250 g/ha, 35 DAA) | % control KCHSC (KCHSC=Kochia scoparia; 150 g/ha) | % control AMAVI (AMAVI=Amaranthus viridis; 75 g/ha, 21 DAA) | % control AMAVI (AMAVI=Amaranthus viridis; 75 g/ha, 35 DAA) | % control AMAVI (AMAVI=Amaranthus viridis; 100 g/ha, 21 DAA) | % control AMAVI (AMAVI=Amaranthus viridis; 100 g/ha, 35 DAA) | % control AMAVI (AMAVI=Amaranthus viridis; 125 g/ha, 21 DAA) | % control AMAVI (AMAVI=Amaranthus viridis; 125 g/ha, 35 DAA) | % control AMAVI (AMAVI=Amaranthus viridis; 250 g/ha, 21 DAA) | % control AMAVI (AMAVI=Amaranthus viridis; 250 g/ha, 35 DAA) | % control BROTE (BROTE=Bromus tectorum; 12.5 g/ha) | % control BROTE (BROTE=Bromus tectorum; 25 g/ha) | % control BROTE (BROTE=Bromus tectorum; 75 g/ha) | % control BROTE (BROTE=Bromus tectorum; 100 g/ha) | % control BROTE (BROTE=Bromus tectorum; 125 g/ha) | % control CCHEC (CCHEC=Cenchrus echinatus; 75 g/ha, 21 DAA) | % control CCHEC (CCHEC=Cenchrus echinatus; 75 g/ha, 35 DAA) | % control CCHEC (CCHEC=Cenchrus echinatus; 100 g/ha, 21 DAA) | % control CCHEC (CCHEC=Cenchrus echinatus; 100 g/ha, 35 DAA) | % control CCHEC (CCHEC=Cenchrus echinatus; 125 g/ha, 21 DAA) | % control CCHEC (CCHEC=Cenchrus echinatus; 125 g/ha, 35 DAA) | % control CCHEC (CCHEC=Cenchrus echinatus; 250 g/ha, 21 DAA) | % control CCHEC (CCHEC=Cenchrus echinatus; 250 g/ha, 35 DAA)
5%: % control KCHSC (KCHSC=Kochia scoparia; 300 g/ha)
20%: % control BROTE (BROTE=Bromus tectorum; 300 g/ha)
9%: % control BROTE (BROTE=Bromus tectorum; 50 g/ha)

CS(=O)(=O)c1ccc(C(=O)C2C(=O)CCCC2=O)c([N+](=O)[O-])c1 [MST, 2-[4-(methylsulfonyl)-2-nitrobenzoyl]cyclohexane-1,3-dione]
40%: % control KCHSC (KCHSC=Kochia scoparia; 20 g/ha) | % control BROTE (BROTE=Bromus tectorum; 75 g/ha)
35%: % control BROTE (BROTE=Bromus tectorum; 50 g/ha)
30%: % control BROTE (BROTE=Bromus tectorum; 12.5 g/ha) | % control BROTE (BROTE=Bromus tectorum; 25 g/ha)
45%: % control KCHSC (KCHSC=Kochia scoparia; 40 g/ha) | % control KCHSC (KCHSC=Kochia scoparia; 60 g/ha) | % control KCHSC (KCHSC=Kochia scoparia; 80 g/ha)
17%: % control EPHHL ([1]; 50 g/ha, 21 DAA) | % control CCHEC (CCHEC=Cenchrus echinatus; 50 g/ha, 21 DAA)
10%: % control AMAVI (AMAVI=Amaranthus viridis; 25 g/ha, 21 DAA) | % control AMAVI (AMAVI=Amaranthus viridis; 25 g/ha, 35 DAA) | % control AMAVI (AMAVI=Amaranthus viridis; 50 g/ha, 21 DAA) | % control AMAVI (AMAVI=Amaranthus viridis; 50 g/ha, 35 DAA)
0%: % control EPHHL ([1]; 25 g/ha, 21 DAA) | % control EPHHL ([1]; 25 g/ha, 35 DAA) | % control EPHHL ([1]; 50 g/ha, 35 DAA) | % control CCHEC (CCHEC=Cenchrus echinatus; 25 g/ha, 35 DAA) | % control CCHEC (CCHEC=Cenchrus echinatus; 50 g/ha, 35 DAA)
50%: % control KCHSC (KCHSC=Kochia scoparia; 100 g/ha)
